Patent US8758746B2, “Fertilization modulation compounds and process for implementing them” (Universite Joseph Fourier, priority 2009, dated 2014)
Entries after “also recorded” stand apart in the source; their conditions may differ.

Assays:
[1] = system: Sperm cells; test: Detection of mGX sPLA2 released from sperm cells (TR-FIA); type: cell-based, mouse; conditions: 90 min capacitation in 2% BSA, A23187 (5 μM) during the last 30 min
Procedure: Sperm cells from 4 caudae epididymes of mGX sPLA2 mice were allowed to swim for 15 min at 37° C. in 2.5 ml of M2 medium. Aliquots of 500 μl of sperm cells were then diluted in 4.5 ml of M16 medium containing 2% fatty acid free BSA and further incubated at 37° C. for 0, 45 and 90 min. In some assays, A23187 Ca2+ ionophore (5 μM) was added after the first 60 min of incubation and sperm cells were incubated for an additional 30 min. After incubation, sperm cells were spun down for 8 min at 1,200 rpm, and supernatants and cell pellets were flash frozen in liquid nitrogen and stored at −80° C. mGX sPLA2 protein expression and enzymatic activity were analyzed on crude cell supernatants and cell pellets after resuspension in 500 μl of M16 medium containing a cocktail of protease inhibitors (Complete inhibitor set, Roche Biochemicals) and lysis with a Branson 350 Sonifier Cell disrupter. […] Briefly, 5 to 50 μl of cell lysates or supernatants were incubated for 60 min in 300 μl of sPLA2 activity buffer (0.1 M Tris pH 8.0, 10 mM CaCl2, and 0.1% bovine serum albumin containing 100,000 DPM of [3H]oleate-radiolabeled E. coli membranes. Reactions were stopped by addition of 300 μl of stop buffer (0.1 M EDTA pH 8.0 and 0.1% fatty acid free bovine serum Albumin); mixtures were centrifuged at 10,000 g for 5 min, and the supernatants containing released [^3H]oleate were counted.

[2] = system: Sperm cells; test: Electron microscopy of sPLA2-induced acrosome reaction; type: cell-based, mouse; conditions: uncapacitated sperm, incubated 10 min (200 nM sPLA2)
Procedure: Sperm cells were fixed with 2.5% glutaraldehyde in 0.1 M cacodylate buffer pH 7.4 during 2 hours at room temperature. Cells were then washed with buffer and post fixed with 1% Osmium tetroxyde in the same buffer during 1 hour at 4° C. After extensive washing with water cells were then stained with 0.5% uranile acetate pH 4 overnight at 4° C. Cells were then dehydrated through graded alcohol (30%-60%-90%-100%-100%-100%) and infiltrate with a mix of 1/1 epon/alcohol 100% during 1 hour before several bath of fresh epon (Flukka) during 3 hours. Finally, cells were centrifugated and immersed in fresh Epon and polymerised during 3 days at 60° C. Ultrathin sections of the cell pellet were cut with an ultramicrotome (Leica). Sections were post-stained with 4% uranile acetate and 1% lead citrate before being observed in an electron microscope at 80 kV (JEOL 1200EX).
It was important to check with electron microscopy (EM) that sPLA2 induced a morphologically normal acrosome reaction. The morphological criteria by which an acrosome reaction is evaluated to be normal are relatively limited: first, the outer acrosomal membrane should present vesiculation, second, the plasma membrane should fuse with the outer acrosomal membrane and present a characteristic double hair pin shape at the base of the acrosome (Green, D. P. (1978) The induction of the acrosome reaction in guinea-pig sperm by the divalent metal cation ionophore A23187. J. Cell Sci., 32:137-51.:137-151.)
For these experiments, uncapacitated sperm was used in order to reduce the contribution of spontaneous AR and 200 nM sPLA2 to get maximum sPLA2-induced AR. Sperm were incubated 10 min with mGX sPLA2 or the calcium ionophore A23187 and then fixed. In the presence of A23187, all acrosome-reacted sperm presented complete AR, with the 3 morphological criteria, as described above.

SMILES: CNc1ccc2oc(C[C@H]3O[C@@]4(CC[C@H]3C)O[C@H]([C@H](C)C(=O)c3ccc[nH]3)[C@H](C)C[C@H]4C)nc2c1C(=O)O [A23187]
- mGX level in the capacitation medium (TRFIA) [1]: two fold increase; also recorded: doubled
- morphology of induced acrosome reaction (electron microscopy) [2]: complete AR
